# Laboratory results reported in patent US20160237302A1, “WATERBORNE COMPOSITIONS” (VICTORIA LINK LIMITED, priority 2013, published 2016).
# Columns and labels:
# Type in all cases: physicochemical
# [1] = Appearance of aqueous composition on hydrazide addition (polyhydrazone formation); settings: appearance in water; for Polyhydrazone from 0.9 eq Formula II-B addition / Polyhydrazone from 0.9 eq Formula II-C addition: polyketone 20% w/v; for Polyhydrazone from 0.9 eq ADH addition: polyketone 20% w/v + 0.9 eq ADH
# Method: (§1) To a solution or dispersion of the polyketone (1 g in 5 mL of distilled water) is added hydrazide (0.9 stoichiometric equivalents of acyl hydrazide moiety compared to ketone functional group).
# [2] = Film formation of cast polyhydrazone material; settings: for Cast material: cast from water
# Method: as §1
# [3] = Appearance of polyketone in water at 20% w/v
# Method: as §1
# [4] = Glass transition temperature by DSC; settings: for Tg: polyhydrazone from polyketone + 0.9 eq ADH, DSC
# Method: Glass transition temperatures (Tg) are measured by differential scanning calorimetry (DSC). Samples were prepared by compressing 2-20 mg of material into a 40 μL pierced aluminium pan and were scanned between −40° and +180° C. at either 10° C./min or 5° C./min. The samples were heated and cooled three times and Tg data were obtained from the second and third sweep; ignoring the initial annealing and desolvating sweep. Tg were determined by observation of the rate of change of slope and baseline shift for the glass and plastic states.
# as §1
# [5] = Appearance of aqueous composition on hydrazide addition (polyhydrazone formation); settings: water
# [6] = Polyhydrazone formation in ACN, ACN/water, THF/water or water at 20-50% w/v; settings: appearance
# [7] = polyhydrazone from polyketone + 0.9 eq ADH
# [8] = polyhydrazone from (7) and formula II-C, cast film
Polyhydrazone from 0.9 eq Formula II-B addition [1],Polyhydrazone from 0.9 eq ADH addition [1],Polyhydrazone from 0.9 eq Formula II-C addition ([1]; initially after hydrazide addition),Polyhydrazone from 0.9 eq Formula II-C addition ([1]; subsequently after hydrazide addition),"Cast material [2, 7]",Polyketone in water at 20% w/v ([3]; 1 g in 5 mL distilled water),Polyketone in water at 20% w/v ([3]; second table),Tg [4] [°C],Polyhydrazone from 0.9 eq Formula II-C addition [1],"Time over which cast film hardened [2, 7]","Polyhydrazone from 0.9 eq ADH addition, at higher concentrations [5]",Polyhydrazone from 0.9 eq ADH in ACN at 50% w/v [6],Polyhydrazone from 0.9 eq ADH in water at 50% w/v [6],Polyhydrazone from 0.9 eq. Formula II-C in ACN at 50% w/v [6],Cast film of polyhydrazone oil ([2]; polyhydrazone from (7) and formula II-C),"Tg (annealed) [4, 8] [°C]","Tg (initial) [4, 8] [°C]",Compound
White precipitate,Clear solution,Clear solution,precipitate forms,Shiny soft well adhered,Clear solution,Clear solution,37,–,–,–,–,–,–,–,–,–,"CC(=O)CCC(=O)OCCOC(=O)CCC(C)=O [Polyketone compound (1), Ethyleneglycol Dilevulinate]"
"Cloudy solution, gel",Clear solution,–,–,Soft easily marked film that,Clear solution,Clear solution,27,"Cloudy solution,",hardened over 5-days.,–,–,–,–,–,–,–,"CC(=O)CCC(=O)OCCOCCOC(=O)CCC(C)=O [Polyketone compound (2), Diethyleneglycol Dilevulinate]"
–,Gels upon,–,–,Hard shiny well adhered,Unstable emulsion,–,60,–,–,–,–,–,–,–,–,–,"CC(=O)CCC(=O)OCC(COC(=O)CCC(C)=O)OC(=O)CCC(C)=O [Polyketone compound (3), Glycerol Trilevulinate]"
No reaction,Clear solution,–,–,–,Clear solution,Clear solution,38,Forms white solid,–,Gels at higher,–,–,–,–,–,–,"CC(=O)CCC(=O)OCCN(CCOC(=O)CCC(C)=O)CCOC(=O)CCC(C)=O [Polyketone compound (6), Triethanolamine Trilevulinate]"
–,Opaque solution,–,–,Hard film,Unstable emulsion,–,121,–,–,–,Pale yellow solid,Pale yellow gel,Yellow oil,strong brittle film,20,38.5,"CC(=O)CCC(=O)OC(C)C(C)OC(=O)CCC(C)=O (stereo not drawn) [Polyketone compound (7), 2,3-Butanediol Dilevulinate]"
–,–,–,–,–,–,–,–,–,–,–,Yellow oil formed,Pale yellow gel,–,–,–,–,"CC(=O)CCC(=O)OCc1ccc(COC(=O)CCC(C)=O)cc1 [Polyketone compound (8), 1,4-Dimethanolbenzene Dilevulinate]"
